Assay type in all cases: nucleic-acid assay
The test system of test [1] is Nucleic Acid. In words: The binding constants against calf thymus DNA. The settings on record: Bos taurus.
Test [2] has as its system Nucleic Acid. As to the kind of experiment: The binding constants against T4 coliphage DNA.
For test [3], the system named is Nucleic Acid. As to the kind of experiment: The binding constants against poly(dA-dT) DNA.
Test [4] relates to Nucleic Acid. As to the kind of experiment: The binding constants against […] DNA.

In turn, `Cn1cc(NC(=O)c2cc(NC(=O)CNC(=N)N)cn2C)cc1C(=O)NCCC(=N)N` yielded a Ka in the test with Nucleic Acid [1] of 1.87e+06 M⁻¹.

As for `CN(C)CCn1cc(NC(=O)c2nc(NC=O)cn2C)nc1C(N)=O`, the Ka in the test on Nucleic Acid [1] was found to be 137000 M⁻¹; in the test with Nucleic Acid [2] it was 19000 M⁻¹; with Nucleic Acid [3], 65000 M⁻¹; in the test on Nucleic Acid [4] it was 105000 M⁻¹.

Source of the values: ChEMBL document CHEMBL1127416, “GC sequence specific recognition by an N-formamido, C-terminus-modified and imidazole-containing analogue of netropsin” (J Med Chem, 1994).
